Measurements reported in US11382956B2, “Amylin analogues” (Zealand Pharma A/S, priority 2016, dated 2022).
Numbered stars: 1 amine (or outer) side, 2 acyl side, 3 side chain; on linkers, the order of the positions; unused ones are H or OH. Bridge positions count the residues as written; N and C are the ends. Square brackets hold non-standard residues; d marks the D form. Peptide text beside a SMILES is read from it. * marks the point of attachment. C20 diacid = O=C(O)CCCCCCCCCCCCCCCCCCC(=O)*; γGlu = O=C(O)[C@H](CCC(=O)[*:2])N[*:1]; Hyp = O=C(O)[C@@H]1C[C@@H](O)CN1; NMeI = CC[C@H](C)[C@H](NC)C(=O)O; Aad = N[C@@H](CCCC(=O)O)C(=O)O; Orn = NCCC[C@H](N)C(=O)O; Dab = NCC[C@H](N)C(=O)O; Dap = NC[C@H](N)C(=O)O; Sar = CNCC(=O)O

Columns and labels:
[1] = target: T1, recombinant human calcitonin receptor (hCT-R) (Homo sapiens, UniProt P30988); assay: hCT-R cAMP assay (AlphaScreen) in 1321N1 cells; format: cell-based; conditions: cAMP formation, 45 min stimulation
T1 construct: host or cells: human astrocytoma cell line 1321N1
T1 sequence (P30988 25-474): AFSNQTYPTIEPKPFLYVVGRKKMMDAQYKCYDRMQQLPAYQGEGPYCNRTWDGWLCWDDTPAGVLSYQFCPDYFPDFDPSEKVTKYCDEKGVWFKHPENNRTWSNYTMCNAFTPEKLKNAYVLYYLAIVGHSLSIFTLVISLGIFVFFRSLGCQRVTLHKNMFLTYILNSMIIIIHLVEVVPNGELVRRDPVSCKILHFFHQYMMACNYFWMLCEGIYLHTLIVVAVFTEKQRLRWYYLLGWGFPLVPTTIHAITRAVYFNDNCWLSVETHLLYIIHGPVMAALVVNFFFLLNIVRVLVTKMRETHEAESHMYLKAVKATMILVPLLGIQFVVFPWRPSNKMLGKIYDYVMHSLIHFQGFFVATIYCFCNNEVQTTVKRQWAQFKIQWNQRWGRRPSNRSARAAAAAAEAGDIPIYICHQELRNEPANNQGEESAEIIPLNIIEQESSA
Outline: (§1)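 EC50 values come from curve fits over at least 7 peptide concentrations, with cAMP read by AlphaScreen competition after 1 h in the dark. Cells were 1321N1 lines carrying human calcitonin receptor, with RAMP3 co-expressed for AMY3, treated 45 min at room temperature in the presence of IBMX.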

[2] = target: T2, recombinant human amylin 3 receptor (hAMYR3) (Homo sapiens, UniProt O60896+P30988); assay: hAMYR3 cAMP assay (AlphaScreen) in 1321N1 cells; format: cell-based; conditions: cAMP formation, 45 min stimulation
T2 construct: host or cells: human astrocytoma cell line 1321N1
T2 sequence (P30988 25-474): T1 sequence (P30988 25-474)
T2 sequence (O60896 24-148 partner): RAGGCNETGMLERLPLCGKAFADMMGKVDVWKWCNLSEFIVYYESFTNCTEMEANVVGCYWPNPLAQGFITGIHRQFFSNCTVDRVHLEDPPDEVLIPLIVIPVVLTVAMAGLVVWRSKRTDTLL
Outline: as §1

EC50 [1] [nM] | EC50 [2] [nM] | Structure (SMILES)
0.769 | 0.12 | CC[C@H](C)[C@@H](C(=O)N[C@@H](CC(C)C)C(=O)N[C@@H](CO)C(=O)N[C@@H](CO)C(=O)N[C@H](C(=O)N[C@@H](CCC(=O)O)C(=O)N[C@H](C(=O)NCC(=O)N[C@@H](CO)C(=O)N[C@@H](CC(N)=O)C(=O)N[C@H](C(=O)N1C[C@H](O)C[C@H]1C(N)=O)[C@@H](C)O)C(C)C)[C@@H](C)O)N(C)C(=O)[C@H](C)NC(=O)CN(C)C(=O)[C@H](Cc1ccccc1)NC(=O)[C@H](C)NC(=O)[C@H](C)NC(=O)[C@H](CCCNC(=N)N)NC(=O)[C@H](CCC(N)=O)NC(=O)[C@H](CC(C)C)NC(=O)[C@H](Cc1ccccc1)NC(=O)[C@H](CCCC(=O)O)NC(=O)[C@H](C)NC(=O)[C@H](CC(C)C)NC(=O)[C@H](CCCNC(=N)N)NC(=O)[C@H](CCC(=O)O)NC(=O)[C@@H](NC(=O)[C@H](C)NC(=O)[C@@H]1CCCNC(=O)C[C@H](NC(=O)[C@H](CCCNC(=N)N)NC(=O)CC[C@H](NC(=O)CCCCCCCCCCCCCCCCCCC(=O)O)C(=O)O)C(=O)NCC(=O)N[C@@H]([C@@H](C)O)C(=O)N[C@@H](C)C(=O)N[C@@H]([C@@H](C)O)C(=O)N1)[C@@H](C)O [Compound 26, [19CD]-isoGlu-RD()GTAT-Orn()-ATERLA-Aad-FLQRAAF-Gly(Me)-A-Ile(Me)-LSSTEVGSNT-Hyp-NH2] ({C20 diacid-γGlu}-RDGTAT[Orn]ATERLA[Aad]FLQRAAF[Sar]A[NMeI]LSSTEVGSNT[Hyp]-NH2; lactam 2-7)
299 | 279 | CC[C@H](C)[C@@H](C(=O)N[C@@H](CC(C)C)C(=O)N[C@@H](CO)C(=O)N[C@@H](CO)C(=O)N[C@H](C(=O)N[C@@H](CCC(=O)O)C(=O)N[C@H](C(=O)NCC(=O)N[C@@H](CO)C(=O)N[C@@H](CC(N)=O)C(=O)N[C@H](C(=O)N1C[C@H](O)C[C@H]1C(N)=O)[C@@H](C)O)C(C)C)[C@@H](C)O)N(C)C(=O)[C@H](C)NC(=O)CN(C)C(=O)[C@H](Cc1ccccc1)NC(=O)[C@H](CO)NC(=O)[C@H](CO)NC(=O)[C@H](CCCNC(=N)N)NC(=O)[C@H](CCC(N)=O)NC(=O)[C@H](CC(C)C)NC(=O)[C@H](Cc1ccccc1)NC(=O)[C@H](Cc1c[nH]cn1)NC(=O)[C@H](C)NC(=O)[C@H](CC(C)C)NC(=O)[C@H](CCCNC(=N)N)NC(=O)[C@H](CCC(=O)O)NC(=O)[C@@H](NC(=O)[C@H](C)NC(=O)[C@@H]1CC(=O)NC[C@H](NC(=O)[C@H](CCCNC(=N)N)NC(=O)CC[C@H](NC(=O)CCCCCCCCCCCCCCCCCCC(=O)O)C(=O)O)C(=O)NCC(=O)N[C@@H]([C@@H](C)O)C(=O)N[C@@H](C)C(=O)N[C@@H]([C@@H](C)O)C(=O)N1)[C@@H](C)O [Compound 45, [19CD]-isoGlu-R-Dap()-GTATD()ATERLAHFLQRSSF-Gly(Me)-A-Ile(Me)-LSSTEVGSNT-Hyp-NH2] ({C20 diacid-γGlu}-R[Dap]GTATDATERLAHFLQRSSF[Sar]A[NMeI]LSSTEVGSNT[Hyp]-NH2; lactam 2-7)
18.2 | 13.2 | CC[C@H](C)[C@@H](C(=O)N[C@@H](CC(C)C)C(=O)N[C@@H](CO)C(=O)N[C@@H](CO)C(=O)N[C@H](C(=O)N[C@@H](CCC(=O)O)C(=O)N[C@H](C(=O)NCC(=O)N[C@@H](CO)C(=O)N[C@@H](CC(N)=O)C(=O)N[C@H](C(=O)N1C[C@H](O)C[C@H]1C(N)=O)[C@@H](C)O)C(C)C)[C@@H](C)O)N(C)C(=O)[C@H](C)NC(=O)CN(C)C(=O)[C@H](Cc1ccccc1)NC(=O)[C@H](CO)NC(=O)[C@H](CO)NC(=O)[C@H](CCCNC(=N)N)NC(=O)[C@H](CCC(N)=O)NC(=O)[C@H](CC(C)C)NC(=O)[C@H](Cc1ccccc1)NC(=O)[C@H](CCCC(=O)O)NC(=O)[C@H](C)NC(=O)[C@H](CC(C)C)NC(=O)[C@H](CCCNC(=N)N)NC(=O)[C@H](CCC(=O)O)NC(=O)[C@@H](NC(=O)[C@H](C)NC(=O)[C@H](CCCN)NC(=O)[C@@H](NC(=O)[C@H](C)NC(=O)[C@@H](NC(=O)CNC(=O)[C@H](CC(=O)O)NC(=O)[C@H](CCCNC(=N)N)NC(=O)CC[C@H](NC(=O)CCCCCCCCCCCCCCCCCCC(=O)O)C(=O)O)[C@@H](C)O)[C@@H](C)O)[C@@H](C)O [Ref. 3, [19CD]-isoGlu-RDGTAT-Orn-ATERLA-Aad-FLQRSSF-Sar-A-Ile(Me)-LSSTEVGSNT-Hyp-NH2, reference compound] ({C20 diacid-γGlu}-RDGTAT[Orn]ATERLA[Aad]FLQRSSF[Sar]A[NMeI]LSSTEVGSNT[Hyp]-NH2)
1.07 | 0.312 | CC[C@H](C)[C@@H](C(=O)N[C@@H](CC(C)C)C(=O)N[C@@H](CO)C(=O)N[C@@H](CO)C(=O)N[C@H](C(=O)N[C@@H](CCC(=O)O)C(=O)N[C@H](C(=O)NCC(=O)N[C@@H](CO)C(=O)N[C@@H](CC(N)=O)C(=O)N[C@H](C(=O)N1C[C@H](O)C[C@H]1C(N)=O)[C@@H](C)O)C(C)C)[C@@H](C)O)N(C)C(=O)[C@H](C)NC(=O)CN(C)C(=O)[C@H](Cc1ccccc1)NC(=O)[C@H](CO)NC(=O)[C@H](CO)NC(=O)[C@H](CCCNC(=N)N)NC(=O)[C@H](CCC(N)=O)NC(=O)[C@H](CC(C)C)NC(=O)[C@H](Cc1ccccc1)NC(=O)[C@H](CCCC(=O)O)NC(=O)[C@H](C)NC(=O)[C@H](CC(C)C)NC(=O)[C@H](CCCNC(=N)N)NC(=O)[C@H](CCC(=O)O)NC(=O)[C@@H](NC(=O)[C@H](C)NC(=O)[C@@H]1CCCCNC(=O)C[C@H](NC(=O)[C@H](CCCNC(=N)N)NC(=O)CC[C@H](NC(=O)CCCCCCCCCCCCCCCCCCC(=O)O)C(=O)O)C(=O)N2CCC[C@H]2C(=O)N[C@@H]([C@@H](C)O)C(=O)N[C@@H](C)C(=O)N[C@@H]([C@@H](C)O)C(=O)N1)[C@@H](C)O [Compound 29, [19CD]-isoGlu-RD()PTATK()ATERLA-Aad-FLQRSSF-Gly(Me)-A-Ile(Me)-LSSTEVGSNT-Hyp-NH2] ({C20 diacid-γGlu}-RDPTATKATERLA[Aad]FLQRSSF[Sar]A[NMeI]LSSTEVGSNT[Hyp]-NH2; lactam 2-7)
10.8 | 7.7 | CC[C@H](C)[C@@H](C(=O)N[C@@H](CC(C)C)C(=O)N[C@@H](CO)C(=O)N[C@@H](CO)C(=O)N[C@H](C(=O)N[C@@H](CCC(=O)O)C(=O)N[C@H](C(=O)NCC(=O)N[C@@H](CO)C(=O)N[C@@H](CC(N)=O)C(=O)N[C@H](C(=O)N1C[C@H](O)C[C@H]1C(N)=O)[C@@H](C)O)C(C)C)[C@@H](C)O)N(C)C(=O)[C@H](C)NC(=O)CN(C)C(=O)[C@H](Cc1ccccc1)NC(=O)[C@H](CO)NC(=O)[C@H](CO)NC(=O)[C@H](CCCNC(=N)N)NC(=O)[C@H](CCC(N)=O)NC(=O)[C@H](CC(C)C)NC(=O)[C@H](Cc1ccccc1)NC(=O)[C@H](Cc1c[nH]cn1)NC(=O)[C@H](C)NC(=O)[C@H](CC(C)C)NC(=O)[C@H](CCCNC(=N)N)NC(=O)[C@H](CCC(=O)O)NC(=O)[C@@H](NC(=O)[C@H](C)NC(=O)[C@@H]1CC(=O)NCCC[C@H](NC(=O)[C@H](CCCNC(=N)N)NC(=O)CC[C@H](NC(=O)CCCCCCCCCCCCCCCCCCC(=O)O)C(=O)O)C(=O)NCC(=O)N[C@@H]([C@@H](C)O)C(=O)N[C@@H](C)C(=O)N[C@@H]([C@@H](C)O)C(=O)N1)[C@@H](C)O [Compound 47, [19CD]-isoGlu-R-Orn()-GTATD()ATERLAHFLQRSSF-Gly(Me)-A-Ile(Me)-LSSTEVGSNT-Hyp-NH2] ({C20 diacid-γGlu}-R[Orn]GTATDATERLAHFLQRSSF[Sar]A[NMeI]LSSTEVGSNT[Hyp]-NH2; lactam 2-7)
7.5 | 5.5 | CC[C@H](C)[C@@H](C(=O)N[C@@H](CC(C)C)C(=O)N[C@@H](CO)C(=O)N[C@@H](CO)C(=O)N[C@H](C(=O)N[C@@H](CCC(=O)O)C(=O)N[C@H](C(=O)NCC(=O)N[C@@H](CO)C(=O)N[C@@H](CC(N)=O)C(=O)N[C@H](C(=O)N1C[C@H](O)C[C@H]1C(N)=O)[C@@H](C)O)C(C)C)[C@@H](C)O)N(C)C(=O)[C@H](C)NC(=O)CN(C)C(=O)[C@H](Cc1ccccc1)NC(=O)[C@H](CO)NC(=O)[C@H](CO)NC(=O)[C@H](CCCNC(=N)N)NC(=O)[C@H](CCC(N)=O)NC(=O)[C@H](CC(C)C)NC(=O)[C@H](Cc1ccccc1)NC(=O)[C@H](Cc1c[nH]cn1)NC(=O)[C@H](C)NC(=O)[C@H](CC(C)C)NC(=O)[C@H](CCCNC(=N)N)NC(=O)[C@H](CCC(=O)O)NC(=O)[C@@H](NC(=O)[C@H](C)NC(=O)[C@@H]1CC(=O)NCC[C@H](NC(=O)[C@H](CCCNC(=N)N)NC(=O)CC[C@H](NC(=O)CCCCCCCCCCCCCCCCCCC(=O)O)C(=O)O)C(=O)NCC(=O)N[C@@H]([C@@H](C)O)C(=O)N[C@@H](C)C(=O)N[C@@H]([C@@H](C)O)C(=O)N1)[C@@H](C)O [Compound 46, [19CD]-isoGlu-R-Dab()-GTATD()ATERLAHFLQRSSF-Gly(Me)-A-Ile(Me)-LSSTEVGSNT-Hyp-NH2] ({C20 diacid-γGlu}-R[Dab]GTATDATERLAHFLQRSSF[Sar]A[NMeI]LSSTEVGSNT[Hyp]-NH2; lactam 2-7)
